Several values for one entry are separate records, joined by “and”; a condition that tells them apart may be missing. Equal entries are not always repeated. Starred links: 1 amine or outer side, 2 acyl side, 3 side chain; linkers in the order of their positions; H or OH if unused. Positions of bridges follow the written chain, without caps; N, C: chain ends. Non-standard residues stand in square brackets, D forms with d. Residues, ends and D or L forms follow the SMILES beside them. Chains are numbered I, II in the order given. Actinocin(9to1) = Cc1c2oc3c(C)ccc(C(=O)[*:1])c3nc-2c(C(=O)[*:2])c(N)c1=O; aThr = C[C@H](O)[C@H](N)C(=O)O; NMeV = CN[C@H](C(=O)O)C(C)C; Sar = CNCC(=O)O
Test system: LX-1 lung xenograft sc, nude mice, tumor weight
Test: NCI In Vivo Anticancer Drug Screen. Data for tumor model Human Lung LX-1 Xenograft (subcutaneous) in NU/NU Swiss (nude) mice
Settings: endpoint: optimum tumor weight change, higher = larger tumour
Experimental: The antitumor activity of compounds was measured in mice bearing transplantable tumors. Survival or tumor size were measured and the results are expressed as the measurement made in the treated group (T) divided by the measurement made in the vehicle treated control group (C). The tumor model used in this assay is Human Lung LX-1 Xenograft (subcutaneous) in NU/NU Swiss (nude) mice

[1] = dose: 25.0 mg/kg/injection, schedule: Q04DX003 (ip), vehicle: Klucel (hydroxypropylcellulose) (HPC)
[2] = dose: 50.0 mg/kg/injection, schedule: Q04DX003 (ip), vehicle: Klucel (hydroxypropylcellulose) (HPC)
[3] = dose: 12.5 mg/kg/injection, schedule: Q04DX003 (ip), vehicle: saline
[4] = dose: 200.0 mg/kg/injection, schedule: Q04DX003 (ip), vehicle: suspension in saline
[5] = dose: 400.0 mg/kg/injection, schedule: Q04DX003 (ip), vehicle: suspension in saline
[6] = dose: 400.0 mg/kg/injection, schedule: Q04DX003 (ip), vehicle: saline with Tween-80
[7] = dose: 800.0 mg/kg/injection, schedule: Q04DX003 (ip), vehicle: saline with Tween-80
[8] = dose: 100.0 mg/kg/injection, schedule: Q04DX003 (ip), vehicle: saline with Tween-80
[9] = dose: 6.25 mg/kg/injection, schedule: Q04DX003 (ip), vehicle: saline
[10] = dose: 25.0 mg/kg/injection, schedule: Q04DX003 (ip), vehicle: saline
[11] = dose: 100.0 mg/kg/injection, schedule: Q04DX003 (ip), vehicle: Klucel (hydroxypropylcellulose) (HPC)

## CCN(C)N=Nc1ccc(C(N)=O)cc1
[1]
  T/C: 67 % of control
[2]
  T/C: 9 % of control
dose: 200.0 mg/kg/injection, schedule: Q04DX003 (ip), vehicle: Klucel (hydroxypropylcellulose) (HPC)
  T/C: -60 % of control

## COc1cccc2c1C(=O)c1c(O)c3c(c(O)c1C2=O)C[C@@](O)(/C(C)=N\O)C[C@@H]3OC1CC(N)C(O)C(C)O1 (some centres undefined)
[3]
  T/C: 55 % of control

## COc1cccc2c1C(=O)c1c(O)c3c(c(O)c1C2=O)C[C@@](O)(C(=O)CO)C[C@@H]3OC1CC(N)CC(C)O1 (some centres undefined)
dose: 0.4 mg/kg/injection, schedule: Q04DX003 (ip), vehicle: water
  T/C: 67 % of control
dose: 0.79 mg/kg/injection, schedule: Q04DX003 (ip), vehicle: water
  T/C: 109 % of control
dose: 1.57 mg/kg/injection, schedule: Q04DX003 (ip), vehicle: water
  T/C: 99 % of control
dose: 3.13 mg/kg/injection, schedule: Q04DX003 (ip), vehicle: water
  T/C: 90 % of control

## CC(=O)OCC(=O)[C@@]12OC(C)(C)O[C@@H]1C[C@H]1[C@@H]3CC(C=O)=C4C=C(OCCCl)CC[C@]4(C)[C@@]3(F)[C@@H](O)C[C@@]12C
[1]
  T/C: 96 % of control
[2]
  T/C: 106 % of control

## CC(=O)OCC1OC(n2ccc(N)nc2=O)C(OC(C)=O)C1OC(C)=O (centres undefined)
[4]
  T/C: 102 % of control
[5]
  T/C: 78 % of control

## O=C/C(Cl)=C(/Cl)C(=O)O
dose: 3.13 mg/kg/injection, schedule: Q04DX003 (ip), vehicle: saline with Tween-80
  T/C: 112 % of control
dose: 6.25 mg/kg/injection, schedule: Q04DX003 (ip), vehicle: saline with Tween-80
  T/C: 84 % of control
dose: 12.5 mg/kg/injection, schedule: Q04DX003 (ip), vehicle: saline with Tween-80
  T/C: 71 % of control

## O=C(NC1CCCCC1)OCc1c(COC(=O)NC2CCCCC2)c(-c2ccc(Cl)c(Cl)c2)n2c1CCC2
dose: 200.0 mg/kg/injection, schedule: Q04DX003 (ip), vehicle: saline with Tween-80
  T/C: 89 % of control
[6]
  T/C: 88 % of control
[7]
  T/C: 73 % of control

## CC1CCC(NC(=O)N(CCCl)N=O)CC1 (centres undefined)
dose: 5.0 mg/kg/injection, schedule: Q04DX003 (ip), vehicle: Klucel (hydroxypropylcellulose) (HPC)
  T/C: 73 % of control
dose: 10.0 mg/kg/injection, schedule: Q04DX003 (ip), vehicle: Klucel (hydroxypropylcellulose) (HPC)
  T/C: 32 % of control

## Nc1ccc(Cl)cc1N
[8]
  T/C: 101 % of control

## O=P1(NCCCl)OCCCN1CCCl (centres undefined)
[9]
  T/C: 26 % of control
[10]
  T/C: 54 % of control
dose: 50.0 mg/kg/injection, schedule: Q04DX003 (ip), vehicle: saline
  T/C: 39 % of control

## Cc1c2oc3c(C)ccc(C(=O)N[C@@H]4C(=O)N[C@H](C(C)C)C(=O)N5CCC[C@H]5C(=O)N(C)CC(=O)N(C)[C@@H](C(C)C)C(=O)O[C@H]4C)c3nc-2c(C(=O)N[C@@H]2C(=O)N[C@H](C(C)C)C(=O)N3CCC[C@H]3C(=O)N(C)CC(=O)N(C)[C@@H](C(C)C)C(=O)O[C@H]2C)c(N)c1=O (I: [aThr][dV]P[Sar][NMeV] / II: [aThr][dV]P[Sar][NMeV]; ester I:1-I:C, II:1-II:C; linker I:N-II:N via Actinocin(9to1))
dose: 150.0 micrograms/kg/injection, schedule: Q04DX003 (ip), vehicle: saline
  T/C: 122 % of control
dose: 300.0 micrograms/kg/injection, schedule: Q04DX003 (ip), vehicle: saline
  T/C: 106 % of control

## CC(=O)Oc1ccc[nH]c1=O
dose: 50.0 mg/kg/injection, schedule: Q04DX003 (ip), vehicle: saline with Tween-80
  T/C: 91 % of control
[8]
  T/C: 81 % of control
[6]
  T/C: 76 % of control
[7]
  T/C: 73 % of control

## CCc1ccccc1N1CCN(C(=O)c2cc(OC)c(OC)c(OC)c2)CC1
[1]
  T/C: 62 % of control and 85 % of control
[11]
  T/C: 60 % of control

## CN(CO)c1nc(N(C)CO)nc(N(C)CO)n1
dose: 25.0 mg/kg/injection, schedule: Q01DX005 (ip), vehicle: saline
  T/C: 79 % of control and 226 % of control
dose: 25.0 mg/kg/injection, schedule: Q04DX005 (ip), vehicle: saline
  T/C: 114 % of control
dose: 50.0 mg/kg/injection, schedule: Q01DX005 (ip), vehicle: saline
  T/C: 59 % of control and 73 % of control
dose: 50.0 mg/kg/injection, schedule: Q04DX005 (ip), vehicle: saline
  T/C: 79 % of control and 84 % of control
dose: 50.0 mg/kg/injection, schedule: Q07DX005 (ip), vehicle: saline
  T/C: 29 % of control
dose: 100.0 mg/kg/injection, schedule: Q01DX005 (ip), vehicle: saline
  T/C: 102 % of control and 122 % of control
dose: 100.0 mg/kg/injection, schedule: Q04DX005 (ip), vehicle: saline
  T/C: 93 % of control
dose: 100.0 mg/kg/injection, schedule: Q07DX005 (ip), vehicle: saline
  T/C: 26 % of control and 33 % of control
dose: 200.0 mg/kg/injection, schedule: Q01DX005 (ip), vehicle: saline
  T/C: -5 % of control
dose: 200.0 mg/kg/injection, schedule: Q07DX005 (ip), vehicle: saline
  T/C: 49 % of control and 55 % of control

## O=NN(CCCl)C(=O)NC1CCC(=O)NC1=O (centres undefined)
dose: 5.0 mg/kg/injection, schedule: Q04DX003 (ip), vehicle: saline with Tween-80
  T/C: 49 % of control

## CN1N=C(N)c2cn(C3OC(COP(=O)(O)O)C(O)C3O)c3ncnc1c23 (centres undefined)
dose: 50.0 mg/kg/injection, schedule: Q04DX003 (ip), vehicle: water
  T/C: 86 % of control

## CSc1cc(=O)n2c3ccccc3c3ccnc1c32
dose: 20.0 mg/kg/injection, schedule: Q04DX003 (ip), vehicle: saline with Tween-80
  T/C: 92 % of control
dose: 40.0 mg/kg/injection, schedule: Q04DX003 (ip), vehicle: saline with Tween-80
  T/C: 71 % of control
dose: 80.0 mg/kg/injection, schedule: Q04DX003 (ip), vehicle: saline with Tween-80
  T/C: 93 % of control
dose: 160.0 mg/kg/injection, schedule: Q04DX003 (ip), vehicle: saline with Tween-80
  T/C: 92 % of control

## Cc1c(N)nc(C(CC(N)=O)NCC(N)C(N)=O)nc1C(=O)NC(C(=O)NC(C)C(O)CC(=O)NC(C(=O)NC(OC1OC(C)C(N)C(O)C1O)C(O)c1nc(-c2nc(C(=O)NCCCC(N)CC(=O)NCCCNCCCCN)cs2)cs1)C(C)O)C(OC1OC(CO)C(O)C(O)C1OC1OC(CO)C(O)C(OC(N)=O)C1O)c1cnc[nH]1 (centres undefined)
dose: 4.0 mg/kg/injection, schedule: Q04DX003 (ip), vehicle: saline
  T/C: 52 % of control
dose: 8.0 mg/kg/injection, schedule: Q04DX003 (ip), vehicle: saline
  T/C: 23 % of control

## O=[N+]([O-])/C=C\c1ccc2c(c1)OCO2
dose: 12.5 mg/kg/injection, schedule: Q04DX003 (ip), vehicle: Klucel (hydroxypropylcellulose) (HPC)
  T/C: 89 % of control
[1]
  T/C: 63 % of control and 88 % of control
[2]
  T/C: 64 % of control and 73 % of control
[11]
  T/C: 103 % of control

## N=c1ccn2c(n1)OC1C(O)C(CO)OC12 (centres undefined)
dose: 200.0 mg/kg/injection, schedule: Q04DX003 (ip), vehicle: saline
  T/C: 66 % of control
dose: 400.0 mg/kg/injection, schedule: Q04DX003 (ip), vehicle: saline
  T/C: 83 % of control
[5]
  T/C: 45 % of control and 61 % of control
dose: 800.0 mg/kg/injection, schedule: Q04DX003 (ip), vehicle: saline
  T/C: 41 % of control
dose: 800.0 mg/kg/injection, schedule: Q04DX003 (ip), vehicle: suspension in saline
  T/C: 17 % of control
dose: 1600.0 mg/kg/injection, schedule: Q04DX003 (ip), vehicle: saline
  T/C: 18 % of control
dose: 1600.0 mg/kg/injection, schedule: Q04DX003 (ip), vehicle: suspension in saline
  T/C: 27 % of control

## COc1cccc2c1C(=O)c1c(O)c3c(c(O)c1C2=O)C[C@@](O)(C(C)=O)C[C@@H]3OC1CC(N)C(O)C(C)O1 (some centres undefined)
dose: 0.25 mg/kg/injection, schedule: Q04DX003 (ip), vehicle: saline
  T/C: 52 % of control
dose: 0.5 mg/kg/injection, schedule: Q04DX003 (ip), vehicle: saline
  T/C: 39 % of control
dose: 1.0 mg/kg/injection, schedule: Q04DX003 (ip), vehicle: saline
  T/C: 86 % of control

## C=C(C)[C@H]1Cc2c(ccc3c2O[C@@H]2COc4cc(OC)c(OC)cc4[C@@H]2C3=O)O1
dose: 3.13 mg/kg/injection, schedule: Q04DX003 (ip), vehicle: saline
  T/C: 106 % of control
[9]
  T/C: 73 % of control
[3]
  T/C: 91 % of control
[10]
  T/C: 102 % of control

## OC(CBr)C(O)C(O)C(O)CBr (centres undefined)
[1]
  T/C: 98 % of control
[2]
  T/C: 66 % of control

## NC(=O)c1ccc[n+](Cc2c(Cl)cccc2Cl)c1
dose: 24.0 mg/kg/injection, schedule: Q04DX003 (ip), vehicle: saline
  T/C: 47 % of control
dose: 48.0 mg/kg/injection, schedule: Q04DX003 (ip), vehicle: saline
  T/C: 68 % of control

## CC(C)=CCNc1ncnc2c1ncn2C1OC(CO)C(O)C1O (centres undefined)
[4]
  T/C: 150 % of control

## COc1cccc2c1C(=O)c1c(O)c3c(c(O)c1C2=O)C[C@@](O)(C(=O)CO)C[C@@H]3OC1CC(N)C(O)C(C)O1 (some centres undefined)
dose: 4.0 mg/kg/injection, schedule: Q04DX003 (ip), vehicle: water
  T/C: 81 % of control

— PubChem BioAssay AID262 (DTP/NCI, 2004)
